From patent US7557134B2, “N-(heteroaryl)-1H-indole-2-carboxamide derivatives and their use as vanilloid TRPV1 receptor ligands” (Sanofi-Aventis, priority 2005, dated 2009)
Counter-ions that a name gives are not always drawn.

target: T1, TRPV1 receptor (Rattus norvegicus, UniProt O35433); assay: Test of inhibition of the current induced with capsaicin on rat DRGs (whole-cell patch-clamp); assay type: cell-based; settings: DRG neuron; compound 1 nM; capsaicin response 300 nM; rat DRG neurons
T1 construct: The neurons of the DRG naturally express the TRPV1 receptor; endogenous in cells; host or cells: primary culture of newborn rat dorsal root ganglion neurons
Method: Test of Inhibition of the Current Induced with Capsaicin on rat DRGs
• Primary culture of rat dorsal root ganglion (DRG) cells:
The neurons of the DRG naturally express the TRPV1 receptor.
The primary cultures of newborn rat DRGs are prepared using 1-day-old rats. Briefly, after dissection, the ganglions are trypsinized and the cells dissociated by mechanical trituration. The cells are resuspended in an Eagle basal culture medium containing 10% fetal calf serum, 25 mM KCl, 2 mM glutamine, 100 μg/ml gentamicin and 50 ng/ml of NGF, and then deposited on glass slides coated with laminin (0.25×10^6 cells per slide), which are then placed in Corning 12-well dishes. The cells are incubated at 37° C. in a humidified atmosphere containing 5% CO2 and 95% air. Cytosine β-D-arabinoside (1 μM) is added 48 hours after culturing, to prevent the growth of non-neuronal cells. The slides are transferred into experimental chambers for the patch-clamp studies after 7-10 days of culturing.
The measuring chambers (volume 800 μl) containing the cell preparation are placed on the platform of an inverted microscope (Olympus IMT2) equipped with Hoffman optics (Modulation Contrast, New York) and observed at a magnification of 400×. The chambers are continuously gravity-influxed (2.5 ml/min) using a solution distributor accepting 8 inlets and whose sole outlet, consisting of a polyethylene tube (aperture 500 μm), is placed less than 3 mm from the cell under study. The “whole cell” configuration of the patch-clamp technique was used. […] The overall currents (membrane potential set at […]) are recorded with an Axopatch 1 D amplifier (Axon Instruments, Foster city, Calif.), connected to a PC running the Pclamp8 software (Axon Instrument). The current plots are recorded on paper and simultaneously digitized (sampling frequency 15 to 25 Hz) and acquired on the hard drive of the PC.
The application of a 300 nM capsaicin solution induces on the DRG cells (voltage set at −70 mV) an entering cationic current. […] The results are expressed as a percentage of inhibition of the control capsaicin response.

T1 sequence (O35433 whole entry): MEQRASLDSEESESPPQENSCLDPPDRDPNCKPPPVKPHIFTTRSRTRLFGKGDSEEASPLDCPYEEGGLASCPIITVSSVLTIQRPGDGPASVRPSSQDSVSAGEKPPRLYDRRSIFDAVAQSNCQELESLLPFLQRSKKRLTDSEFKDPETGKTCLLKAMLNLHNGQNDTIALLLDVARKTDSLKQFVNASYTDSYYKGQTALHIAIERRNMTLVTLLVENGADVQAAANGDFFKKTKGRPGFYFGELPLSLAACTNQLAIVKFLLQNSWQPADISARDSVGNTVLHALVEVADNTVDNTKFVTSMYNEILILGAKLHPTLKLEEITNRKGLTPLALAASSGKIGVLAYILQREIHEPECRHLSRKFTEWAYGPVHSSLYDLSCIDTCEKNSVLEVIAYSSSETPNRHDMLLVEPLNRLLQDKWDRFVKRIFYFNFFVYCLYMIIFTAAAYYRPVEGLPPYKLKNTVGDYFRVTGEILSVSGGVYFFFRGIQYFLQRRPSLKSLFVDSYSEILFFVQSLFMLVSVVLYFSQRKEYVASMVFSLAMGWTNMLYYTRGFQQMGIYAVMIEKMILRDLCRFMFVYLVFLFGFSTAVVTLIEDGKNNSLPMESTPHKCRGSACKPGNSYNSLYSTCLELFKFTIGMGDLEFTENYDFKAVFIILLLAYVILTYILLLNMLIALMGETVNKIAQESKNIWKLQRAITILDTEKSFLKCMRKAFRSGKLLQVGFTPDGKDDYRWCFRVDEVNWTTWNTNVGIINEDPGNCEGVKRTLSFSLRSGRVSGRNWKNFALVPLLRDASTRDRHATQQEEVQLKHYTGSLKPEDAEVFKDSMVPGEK

| SMILES | inhibition at 0.001 µM [%] |
| --- | --- |
| Cn1ncc2cc(NC(=O)c3cc4cc(C(F)(F)F)ccc4n3Cc3cccc(F)c3)ccc21 [Compound 19, N-(1-methyl-1H-indazol-5-yl)-5-trifluoromethyl-1-[(3-fluorophenyl)methyl]-1H-indole-2-carboxamide] | 48 |

system: not given; assay: not given; settings: not given

| SMILES | melting point [°C] |
| --- | --- |
| COc1ccc2cc(C(=O)Nc3ccc4c(c3)NC(=O)CC4)n(Cc3ccc(F)cc3)c2c1 [Compound 53, N-(2-oxo-3,4-dihydroquinol-7-yl)-6-methoxy-1-[(4-fluorophenyl)methyl]-1H-indole-2-carboxamide] | 255 to 256 |
| O=C(Nc1ccc2[nH]nnc2c1)c1cc2cc(C(F)(F)F)ccc2n1Cc1cccc(F)c1 | 167 to 174 |
| Cc1nc2cc(NC(=O)c3cc4cc(F)ccc4n3Cc3cccc(F)c3)ccc2o1 | 188 to 189 |
| Cc1nc2cc(NC(=O)c3cc4cc(F)ccc4n3Cc3cccc(F)c3)ccc2n1C | 281 to 282 |
| CC1C(=O)NOc2cc(NC(=O)c3cc4ccccc4n3-c3cccc(C(F)(F)F)c3)ccc21 (stereo not drawn) [Compound 5, N-(4-methyl-3-oxo-2H-benzoxazin-7-yl)-1-[3-(trifluoromethyl)phenyl]-1H-indole-2-carboxamide] | 198 to 200 |
| O=C(Nc1ccc2c(c1)CCNO2)c1cc2ccccc2n1-c1cccc(C(F)(F)F)c1 [Compound 10, N-(2,3-dihydrobenzoxazin-6-yl)-1-[3-(trifluoromethyl)phenyl]-1H-indole-2-carboxamide] | 90 to 92 |
| O=C1Cc2cc(NC(=O)c3cc4cc(F)ccc4n3Cc3cccc(F)c3)ccc2N1 [Compound 42, N-(2-oxoindolin-5-yl)-5-fluoro-1-[(3-fluorophenyl)methyl]-1H-indole-2-carboxamide] | 249 to 250 |
| O=C(Nc1ccc2[nH]nnc2c1)c1cc2cc(F)ccc2n1Cc1cccc(F)c1 | 220 to 221 |
| O=C(Nc1cccc2cnccc12)c1cc2cc(F)ccc2n1Cc1cccc(F)c1 | 206 to 207 |
| Cc1nc2cc(NC(=O)c3cc4cc(C(F)(F)F)ccc4n3Cc3cccc(F)c3)ccc2s1 | 191 to 192 |
| O=C(Nc1ccc2c(c1)NCCC2)c1cc2ccccc2n1-c1cccc(C(F)(F)F)c1 [Compound 4, N-(1,2,3,4-tetrahydroquinol-7-yl)-1-[3-(trifluoromethyl)phenyl]-1H-indole-2-carboxamide] | 140 to 143 |
| O=C(Nc1ccc2nccnc2c1)c1cc2cc(F)ccc2n1Cc1cccc(F)c1 | 188 to 189 |
| O=C(Nc1ccc2occc2c1)c1cc2ccccc2n1-c1cccc(C(F)(F)F)c1 [Compound 8, N-(benzofuran-5-yl)-1-[3-(trifluoromethyl)phenyl]-1H-indole-2-carboxamide] | 141 to 143 |
| Cc1nc2cc(NC(=O)c3cc4cc(F)ccc4n3Cc3cccc(F)c3)ccc2s1 | 201 to 202 |
| CS(=O)(=O)N1CCc2cc(NC(=O)c3cc4cc(F)ccc4n3Cc3cccc(F)c3)ccc21 [Compound 44, N-(1-methylsulfonylindolin-5-yl)-5-fluoro-1-[(3-fluorophenyl)methyl]-1H-indole-2-carboxamide] | 192 to 193 |
| O=C(Nc1ccc2ncsc2c1)c1cc2cc(F)ccc2n1Cc1cccc(F)c1 | 167 to 168 |
| O=C(Nc1ccc2ncccc2c1)c1cc2cc(F)ccc2n1Cc1cccc(F)c1 | 208 to 210 |
| O=C(Nc1ccc2ccncc2c1)c1cc2cc(F)ccc2n1Cc1cccc(F)c1 (as salt: HCl) | 270 to 272 |
| O=C(Nc1ccc2nc[nH]c2c1)c1cc2cc(F)ccc2n1Cc1cccc(F)c1 (as salt: HCl) | 275 to 280 |

More lines, now with the values ahead:

| melting point [°C] | SMILES |
| --- | --- |
| 195 to 200 | Cc1nc2ccc(NC(=O)c3cc4cc(F)ccc4n3Cc3cccc(F)c3)cc2[nH]1 (as salt: HCl) |
| 210 to 211 | Cn1ncc2cc(NC(=O)c3cc4cc(F)ccc4n3Cc3cccc(F)c3)ccc21 |
| 139 to 141 | O=C(Nc1ccc2cnccc2c1)c1cc2cc(F)ccc2n1Cc1cccc(F)c1 |
| 214 to 216 | O=C1Cc2ccc(NC(=O)c3cc4ccccc4n3-c3cccc(C(F)(F)F)c3)cc2ON1 [Compound 11, N-(3-oxo-2H-benzoxazin-7-yl)-1-[3-(trifluoromethyl)phenyl]-1H-indole-2-carboxamide] |
| 248 to 251 | Cn1cnc2cc(NC(=O)c3cc4cc(F)ccc4n3Cc3cccc(F)c3)ccc21 |
| 146 to 147 | CN1CCCc2ccc(NC(=O)c3cc4cc(C(F)(F)F)ccc4n3Cc3cccc(F)c3)cc21 [Compound 27, N-(1-methyl-1,2,3,4-tetrahydroquinol-7-yl)-5-trifluoromethyl-1-[(3-fluorophenyl)methyl]-1H-indole-2-carboxamide] |
| 215 to 216 | Cn1cnc2ccc(NC(=O)c3cc4cc(F)ccc4n3Cc3cccc(F)c3)cc21 |
| 194 to 195 | O=C(Nc1ccc2oc(-c3ccccc3)nc2c1)c1cc2cc(C(F)(F)F)ccc2n1Cc1cccc(F)c1 [Compound 47, N-(2-phenylbenzoxazol-5-yl)-5-trifluoromethyl-1-[(3-fluorophenyl)methyl]-1H-indole-2-carboxamide] |
| 93 to 95 | O=C(Nc1cccc2c1NCCC2)c1cc2ccccc2n1-c1cccc(C(F)(F)F)c1 [Compound 16, N-(1,2,3,4-tetrahydroquinol-8-yl)-1-[3-(trifluoromethyl)phenyl]-1H-indole-2-carboxamide] |
| 182 to 183 | Cc1nc2cc(NC(=O)c3cc4cc(C(F)(F)F)ccc4n3Cc3cccc(F)c3)ccc2o1 |
| 222 to 224 | O=C(Nc1ccc2ocnc2c1)c1cc2ccccc2n1-c1cccc(C(F)(F)F)c1 [Compound 17, N-(benzoxazol-5-yl)-1-[3-(trifluoromethyl)phenyl]-1H-indole-2-carboxamide] |
| 195 to 197 | Cn1cnc2c(NC(=O)c3cc4cc(F)ccc4n3Cc3cccc(F)c3)cccc21 |
| 187 to 189 | CCc1nc2cc(NC(=O)c3cc4cc(C(F)(F)F)ccc4n3Cc3cccc(F)c3)ccc2o1 [Compound 46, N-(2-ethylbenzoxazol-5-yl)-5-trifluoromethyl-1-[(3-fluorophenyl)methyl]-1H-indole-2-carboxamide] |
| 178 to 180 | CC1C(=O)NOc2ccc(NC(=O)c3cc4ccccc4n3-c3cccc(C(F)(F)F)c3)cc21 (stereo not drawn) [Compound 6, N-(4-methyl-3-oxo-2H-benzoxazin-6-yl)-1-[3-(trifluoromethyl)phenyl]-1H-indole-2-carboxamide] |
| 298 to 299 | O=C1CCc2ccc(NC(=O)c3cc4cc(C(F)(F)F)ccc4n3Cc3cccc(F)c3)cc2N1 [Compound 41, N-(2-oxo-3,4-dihydroquinol-7-yl)-5-trifluoromethyl-1-[(3-fluorophenyl)methyl]-1H-indole-2-carboxamide] |
| 244 to 246 | O=C1Cc2cc(NC(=O)c3cc4cc(C(F)(F)F)ccc4n3Cc3cccc(F)c3)ccc2N1 [Compound 25, N-(2-oxoindolin-5-yl)-5-trifluoromethyl-1-[(3-fluorophenyl)methyl]-1H-indole-2-carboxamide] |
| 92 to 95 | CN1CCCc2ccc(NC(=O)c3cc4ccccc4n3-c3cccc(C(F)(F)F)c3)cc21 [Compound 2, N-(1-methyl-1,2,3,4-tetrahydroquinol-7-yl)-1-[3-(trifluoromethyl)phenyl]-1H-indole-2-carboxamide] |
| 191 to 192 | O=C(Nc1ccc2ncsc2c1)c1cc2cc(C(F)(F)F)ccc2n1Cc1cccc(F)c1 |
| 214 to 215 | CS(=O)(=O)N1CCc2cc(NC(=O)c3cc4cc(C(F)(F)F)ccc4n3Cc3cccc(F)c3)ccc21 [Compound 31, N-(1-methylsulfonylindolin-5-yl)-5-trifluoromethyl-1-[(3-fluorophenyl)methyl]-1H-indole-2-carboxamide] |
